“And” between values parts separate entries of the source, which are not always exact repeats. Equal values may be shown once.

The source of these data is PMC4729491, “The Cellular Thioredoxin-1/Thioredoxin Reductase-1 Driven Oxidoreduction Represents a Chemotherapeutic Target for HIV-1 Entry Inhibition” (PLoS ONE, 2016).

In one assay the test system is HIV-1(HE). Briefly: Antiviral activity in PHA-stimulated PBMCs (p24 ELISA), HIV-1(HE). The class given is cell-based. To be noted: PHA-stimulated PBMCs; mean ± SD; read-out: EC50 HIV-1 (HE). The procedure:
To test the antiviral activity in fresh, PHA-stimulated PBMCs, an experiment was performed as previously described. Briefly, the cells were preincubated with HIV-1(IIIB), HIV-1(BaL) or HIV-1(HE) for 1 h at 37°C, using a viral load of 1000 x CCID50 per ml. Then, cell suspensions containing virus and 2 x 10^5 PBMCs were seeded in a 96-well microtiter plate and a serial dilution of compound was added, in a total volume of 200 μl. After 4 days, the cells were passaged and fresh culture medium, containing IL-2 and compound, was added. Three days later, cellular supernatants were harvested and viral replication in the presence of the compounds was quantified using a p24 enzyme-linked immunosorbent assay (ELISA) (Perkin Elmer, Brussels, Belgium). The half maximal effective concentration (EC50) was defined as the compound concentration that is required to block viral replication by 50%.

The test system of a further assay is HIV-1. Briefly: Infectivity (TZM-bl) of virus particles produced by ACH-2 cells in presence of compound. The class given is cell-based. To be noted: ACH-2 cultures exposed to compound 3 days; supernatant 1:100 titrated on TZM-bl. The procedure:
To measure the infectivity of particles produced in the presence of the compounds, washed persistently HIV-1-infected ACH-2 cells (1 x 10^6 cells/ml) were cultured with 100 nM PMA in the presence of the indicated concentration of compounds. After 3 days, the p24 content of the clarified supernatant (see virus expression) was measured. The cell supernatant was then used for an infectivity test (see infectivity assay) without the further addition of any compound to the cultures. The final dilution of the ACH-2 supernatant in the infectivity test was 1:100. A control experiment was performed, in which virus particles produced without the addition of compound, were used for the infectivity test. Additionally, the same amount of compound that could have been carried over with the virus containing supernatant in the original experiment was added to the infectivity test (final concentration: 1/100 of the indicated amount in the viral growth culture).

The target in another assay is T1, TrxR1 (Homo sapiens, UniProt Q16881).
T1 construct: purchased IMCO Corporation (Stockholm, Sweden) or Sino Biological Inc (Zoersel, Belgium)
T1 sequence (Q16881 1-499 isoform Q16881-5): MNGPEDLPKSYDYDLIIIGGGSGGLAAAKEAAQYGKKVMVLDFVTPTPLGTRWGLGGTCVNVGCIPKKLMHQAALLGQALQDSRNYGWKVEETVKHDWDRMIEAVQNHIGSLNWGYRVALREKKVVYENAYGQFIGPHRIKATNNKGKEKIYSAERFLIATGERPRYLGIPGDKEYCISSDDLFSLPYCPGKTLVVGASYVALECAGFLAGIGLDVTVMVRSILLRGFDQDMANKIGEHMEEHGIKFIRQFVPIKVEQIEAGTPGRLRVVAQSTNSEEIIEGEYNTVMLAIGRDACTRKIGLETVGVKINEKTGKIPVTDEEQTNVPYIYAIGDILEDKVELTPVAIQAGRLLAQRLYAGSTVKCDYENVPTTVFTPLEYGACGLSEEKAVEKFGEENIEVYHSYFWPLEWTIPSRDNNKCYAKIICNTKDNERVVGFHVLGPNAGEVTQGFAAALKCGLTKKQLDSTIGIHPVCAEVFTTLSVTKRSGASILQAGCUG
In words: SPR binding to immobilized TrxR1. The conditions noted are these: 10, 50 and 250 μM. On the procedure: SPR analysis was performed to evaluate binding of TE-2 to immobilized recombinant TrxR1, PDI, gp120, gp41 and sCD4. Therefore, these ligands were immobilized on a CM5 sensor chip (GE Healthcare, Uppsala, Sweden) using standard amine coupling in the presence of 10 mM sodium acetate, pH 5. A high ligand-density chip was created, with ligand densities of 6759, 5004, 4119, 2900 and 5569 RU, respectively. A reference flow cell was used to control for non-specific binding and refractive index changes. All interactions were studied at 25°C on a Biacore T200 instrument (GE Healthcare, Uppsala, Sweden) in HBS-P (10 mM HEPES, 150 mM NaCl and 0.05% surfactant P20; pH 7.4) supplemented with 10 mM CaCl2 and 5% DMSO. TE-2 was tested at the concentrations 10, 50 and 250 μM. Samples were injected during 2 minutes at a flow rate of 30 μl/min, followed by a dissociation phase of 2 minutes. Each injection was followed by a regeneration step with 50 mM NaOH (injected during 10 seconds at a flow rate of 100 μl/min).
Background: SPR reads the build-up and loss of mass on a sensor chip optically.

Another assay concerns HIV-1(IIIB). Briefly: microbe, parasite or virus in culture. The conditions noted are these: CEM cells. Format: cell-based. The procedure: To study the antiviral activity in transformed cells, CEM cells were suspended in fresh culture medium and infected with HIV-1(IIIB) or HIV-2(ROD) at 100 x CCID50 (cell culture infective dose 50%) per ml of cell suspension. Infected cell suspension (100 μl; 3 x 10^5 cells/ml) was transferred to a 96-well microplate, mixed with 100 μl of the appropriate dilutions of compounds, and further incubated at 37°C. After 4 days, giant cell formation was recorded microscopically and the number of giant cells was estimated microscopically as percentage of the number of giant cells present in the non-treated virus-infected cell cultures.

For the substance “6-(butyltelluro)-6-deoxy-β-cyclodextrin [TE-2]”, the EC50 (in general, the concentration at which the effect is half-maximal) in the assay on HIV-1(HE) is 6.6 ± 4.2 µM; with HIV-1(IIIB) (concentration required to protect against cytopathogenicity of HIV by 50%, mean ± SD, read-out: EC50 HIV-1 (IIIB)), 1.1 ± 0.25 µM. In the assay with HIV-1, the “infectivity of virus particles produced in presence of compound (normalized for equal p24)” value is “substantially less infectious virus particles”. For the same substance, the “SPR binding to TrxR1” value on TrxR1 is reported as “able to specifically bind TrxR1”. In the assay on HIV-1(IIIB), the “Ratio IC50/EC50 HIV-1 (CEM)” value came out at 227. For the same substance, the “antiviral selectivity SI = IC50/EC50” value in the assay on HIV-1(IIIB) (over HIV-1 and HIV-2) is 167–227 and > 100.
